“And” between values parts separate entries of the source, which are not always exact repeats. Identical values can stand only once.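 Values below derive from 48-hour exposures of cells grown in 96-well plates, with endpoints linearly interpolated between the two concentrations bracketing the appropriate inhibition level. Abbreviation: GI50, concentration required for 50% inhibition of growth. TGI: concentration producing complete growth inhibition.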
Experiments:
Test in all cases: inhibition of tumour cell growth, NCI panel, 48 h
[1] = system: 786-0 renal
[2] = system: A498 renal
[3] = system: A549 NSCLC
[4] = system: ACHN renal
[5] = system: BT-549 breast
[6] = system: CAKI-1 renal
[7] = system: COLO 205 colon
[8] = system: DLD-1 colon
[9] = system: DMS 114 small cell lung
[10] = system: DMS 273 small cell lung
[11] = system: DU-145 prostate
[12] = system: EKVX NSCLC
[13] = system: HCC-2998 colon
[14] = system: HCT-116 colon
[15] = system: HCT-15 colon
[16] = system: HL-60(TB) leukemia
[17] = system: HOP-18 NSCLC
[18] = system: HOP-62 NSCLC
[19] = system: HOP-92 NSCLC
[20] = system: HS 578T breast
[21] = system: HT29 colon
[22] = system: IGROV1 ovarian
[23] = system: K-562 leukemia
[24] = system: KM12 colon
[25] = system: KM20L2 colon
[26] = system: LOX IMVI melanoma
[27] = system: LXFL 529 NSCLC
[28] = system: M14 melanoma
[29] = system: M19-MEL melanoma
[30] = system: MALME-3M melanoma
[31] = system: MCF7 breast
[32] = system: MDA-MB-231 breast
[33] = system: MDA-MB-435
[34] = system: MDA-N
[35] = system: MOLT-4 leukemia
[36] = system: NCI-H226 lung
[37] = system: NCI-H23 lung
[38] = system: NCI-H460 lung
[39] = system: NCI-H522 lung
[40] = system: NCI/ADR-RES ovarian
[41] = system: OVCAR-3 ovarian
[42] = system: OVCAR-4 ovarian
[43] = system: OVCAR-5 ovarian
[44] = system: OVCAR-8 ovarian
[45] = system: PC-3 prostate
[46] = system: RXF 393 renal
[47] = system: SF-268 CNS
[48] = system: SF-295 CNS
[49] = system: SF-539 CNS
[50] = system: SK-MEL-2 melanoma
[51] = system: SK-MEL-28 melanoma
[52] = system: SK-MEL-5 melanoma
[53] = system: SK-OV-3 ovarian
[54] = system: SN12C renal
[55] = system: SNB-19 CNS
[56] = system: SNB-75 CNS
[57] = system: SR leukemia
[58] = system: SW-620 colon
[59] = system: T-47D breast
[60] = system: TK-10 renal
[61] = system: U251 CNS
[62] = system: UACC-257 melanoma
[63] = system: UACC-62 melanoma
[64] = system: UO-31 renal
[65] = system: XF 498 CNS
[66] = system: CCRF-CEM leukemia
[67] = system: RPMI-8226 leukemia
[68] = system: SNB-78 CNS

SMILES: CC1=C2C(=CC(C)(C)[C@@H]2O)C(=O)[C@](C)(O)C12CC2
- TGI [1]: 53.2 nM and 67 nM
- GI50 [2]: 18.3 nM and 10.8 nM
- TGI [2]: 49.9 nM and 55.3 nM
- TGI [3]: 191 nM and 1120 nM
- GI50 [4]: 7.96 nM
- TGI [4]: 62.5 nM and 114 nM
- GI50 [5]: 30.5 nM
- TGI [5]: 107 nM and 78.8 nM
- GI50 [6]: 12.9 nM and 43.6 nM
- TGI [6]: 69.7 nM and 594 nM
- GI50 [7]: 20.9 nM
- TGI [7]: 98.9 nM and 97.7 nM
- TGI [8]: 82.5 nM
- TGI [9]: 101 nM
- TGI [10]: 18.9 nM
- GI50 [11]: 5.45 nM
- TGI [11]: 26.2 nM
- GI50 [12]: 40.9 nM
- TGI [12]: 170 nM and 221 nM
- GI50 [13]: 23.7 nM
- TGI [13]: 79 nM and 42.3 nM
- TGI [14]: 186 nM and 193 nM
- GI50 [15]: 5.14 nM
- GI50 [16]: 9.01 nM and 19.4 nM
- TGI [16]: 49.5 nM and 83.2 nM
- TGI [17]: 86.5 nM
- GI50 [18]: 23.3 nM
- TGI [18]: 100 nM and 87.2 nM
- GI50 [19]: 26.8 nM
- TGI [19]: 88.7 nM and 71.2 nM
- GI50 [20]: 27.6 nM
- TGI [20]: 85.5 nM and 39.5 nM
- GI50 [21]: 6.23 nM
- TGI [21]: 208 nM and 71.3 nM
- GI50 [22]: 23.1 nM
- TGI [22]: 105 nM and 69.8 nM
- GI50 [23]: 14.5 nM
- TGI [23]: 369 nM and 596 nM
- GI50 [24]: 20.5 nM
- TGI [24]: 123 nM and 411 nM
- TGI [25]: 74.4 nM
- GI50 [26]: 12.5 nM
- TGI [26]: 52.9 nM and 38.4 nM
- TGI [27]: 92.7 nM
- TGI [28]: 53.7 nM and 43.1 nM
- TGI [29]: 163 nM
- GI50 [30]: 48.6 nM
- TGI [30]: 112 nM and 54 nM
- GI50 [31]: 4.72 nM
- TGI [31]: 46.9 nM and 123 nM
- GI50 [32]: 51.3 nM
- GI50 [33]: 25 nM and 14.7 nM
- TGI [33]: 70.6 nM and 31.9 nM
- GI50 [34]: 12.6 nM
- TGI [34]: 42.4 nM and 27.8 nM
- GI50 [35]: 13.7 nM
- TGI [35]: 134 nM and < 20.8 nM
- GI50 [36]: 70.9 nM
- TGI [36]: 232 nM and 171 nM
- GI50 [37]: 15.7 nM
- TGI [37]: 60.7 nM and 26.6 nM
- GI50 [38]: 5.75 nM
- TGI [38]: 43.7 nM and < 31.1 nM
- GI50 [39]: 13.7 nM
- TGI [39]: 48.4 nM and < 23.2 nM
- GI50 [40]: 22.3 nM
- TGI [40]: 104 nM and 15.5 nM
- GI50 [41]: 8.35 nM
- TGI [41]: 32.7 nM and 42.2 nM
- GI50 [42]: 14.7 nM
- TGI [42]: 201 nM and 45.8 nM
- TGI [43]: 95.4 nM and 37.4 nM
- GI50 [44]: 29.4 nM
- TGI [44]: 182 nM and 1290 nM
- TGI [45]: 164 nM and 19.4 nM
- TGI [46]: 19.9 nM
- GI50 [47]: 9.73 nM
- TGI [47]: 72.7 nM and 65.9 nM
- GI50 [48]: 26 nM
- TGI [48]: 110 nM and 50.3 nM
- TGI [49]: 54.8 nM and 38 nM
- GI50 [50]: 19.6 nM
- TGI [50]: 52.5 nM and 22.3 nM
- TGI [51]: 75.6 nM and 89.1 nM
- GI50 [52]: 15.9 nM
- TGI [52]: 35.8 nM and 26.9 nM
- GI50 [53]: 29.4 nM
- TGI [53]: 213 nM and 67.6 nM
- GI50 [54]: 38.7 nM
- TGI [54]: 216 nM and 184 nM
- GI50 [55]: 52.3 nM
- TGI [55]: 371 nM and 279 nM
- GI50 [56]: 31.5 nM and < 14.2 nM
- TGI [56]: 72.3 nM and 27.2 nM
- GI50 [57]: 3.51 nM
- TGI [57]: 74.4 nM and 268 nM
- GI50 [58]: 5.97 nM and 16.8 nM
- TGI [58]: 97.6 nM and 131 nM
- GI50 [59]: 48.9 nM
- TGI [59]: 359 nM and 97.4 nM
- GI50 [60]: 51.1 nM
- TGI [60]: 222 nM and 236 nM
- GI50 [61]: 16.9 nM
- TGI [62]: 328 nM and 259 nM
- TGI [63]: 62.3 nM and 67.8 nM
- GI50 [64]: 17.4 nM
- TGI [64]: 65.5 nM and 76.8 nM
- TGI [65]: 32.6 nM

SMILES: CCOC(=O)CN(Cn1cncn1)Cn1cncn1
- TGI [1]: > 100000 nM
- TGI [3]: > 100000 nM
- TGI [4]: > 100000 nM
- TGI [6]: > 100000 nM
- TGI [66]: > 100000 nM
- TGI [7]: > 100000 nM
- TGI [8]: > 100000 nM
- TGI [10]: 39800 nM
- TGI [12]: > 100000 nM
- TGI [13]: > 100000 nM
- TGI [14]: > 100000 nM
- TGI [15]: 47200 nM
- TGI [16]: > 100000 nM
- TGI [17]: > 100000 nM
- TGI [18]: > 100000 nM
- TGI [19]: > 100000 nM
- TGI [21]: > 100000 nM
- TGI [22]: > 100000 nM
- TGI [23]: > 100000 nM
- TGI [24]: 44600 nM
- TGI [25]: 51700 nM
- TGI [26]: 43400 nM
- TGI [27]: > 100000 nM
- TGI [29]: > 100000 nM
- TGI [30]: > 100000 nM
- TGI [35]: > 100000 nM
- TGI [36]: 79200 nM
- TGI [38]: 57100 nM
- TGI [41]: 51800 nM
- TGI [42]: > 100000 nM
- TGI [43]: > 100000 nM
- TGI [44]: 58800 nM
- TGI [67]: > 100000 nM
- TGI [46]: 36000 nM
- TGI [48]: > 100000 nM
- TGI [50]: > 100000 nM
- TGI [51]: 37100 nM
- TGI [52]: 53700 nM
- TGI [53]: > 100000 nM
- TGI [54]: 85300 nM
- TGI [56]: 91000 nM
- TGI [68]: > 100000 nM
- TGI [58]: 60000 nM
- TGI [60]: > 100000 nM
- TGI [61]: 33700 nM
- TGI [62]: 33000 nM
- TGI [63]: > 100000 nM
- TGI [64]: > 100000 nM
- TGI [65]: 40900 nM

SMILES: O=C1C(=O)N(c2ccc(Cl)cc2)C(=O)C(=O)C1c1nc2ccccc2s1
- TGI [1]: > 100000 nM
- TGI [4]: > 100000 nM
- TGI [6]: > 100000 nM
- TGI [7]: > 100000 nM
- TGI [9]: > 100000 nM
- TGI [10]: > 100000 nM
- TGI [12]: > 100000 nM
- TGI [13]: > 100000 nM
- TGI [14]: > 100000 nM
- TGI [15]: > 100000 nM
- TGI [17]: > 100000 nM
- TGI [18]: > 100000 nM
- TGI [19]: > 100000 nM
- TGI [21]: > 100000 nM
- TGI [22]: > 100000 nM
- TGI [23]: > 100000 nM
- TGI [24]: > 100000 nM
- TGI [25]: > 100000 nM
- TGI [26]: > 100000 nM
- TGI [27]: > 100000 nM
- TGI [28]: > 100000 nM
- TGI [29]: > 100000 nM
- TGI [30]: > 100000 nM
- TGI [35]: > 100000 nM
- TGI [36]: > 100000 nM
- TGI [37]: > 100000 nM
- TGI [38]: > 100000 nM
- TGI [39]: > 100000 nM
- TGI [41]: > 100000 nM
- TGI [42]: > 100000 nM
- TGI [43]: > 100000 nM
- TGI [44]: > 100000 nM
- TGI [67]: > 100000 nM
- TGI [46]: > 100000 nM
- TGI [47]: > 100000 nM
- TGI [48]: > 100000 nM
- TGI [49]: > 100000 nM
- TGI [50]: > 100000 nM
- TGI [51]: > 100000 nM
- TGI [52]: > 100000 nM
- TGI [53]: > 100000 nM
- TGI [54]: > 100000 nM
- TGI [55]: > 100000 nM
- TGI [56]: > 100000 nM
- TGI [68]: > 100000 nM
- TGI [58]: > 100000 nM
- TGI [60]: > 100000 nM
- TGI [61]: > 100000 nM
- TGI [62]: > 100000 nM
- TGI [63]: > 100000 nM
- TGI [64]: > 100000 nM
- TGI [65]: > 100000 nM
